Reference: article PMC3224213, “Bacterial membrane activity of α-peptide/β-peptoid chimeras: Influence of amino acid composition and chain length on the activity against different bacterial strains” (BMC Microbiology, 2011)

Tests used:
[1] = design: method as in PMID 18675778; conditions: unilamellar liposomes mimicking human cell membranes; ref [24]; cited from earlier work
[2] = tested on: twelve food-borne and clinical bacterial strains; type: cell-based; conditions: ratio of MIC values, Table 2
Description: Initial activity experiments were carried out with twelve strains from seven bacterial species representing common laboratory strains and clinical strains derived from both food-borne and nosocomial infections (Table 1). Stock cultures were stored at -80°C in 4% (w/v) glycerol, 0.5% (w/v) glucose, 2% (w/v) skimmed milk powder and 3% (w/v) tryptone soy powder. All experiments were carried out with bacteria incubated for one night (i.e. approximately 18 hours) at 37°C. Experiments were performed in cation-adjusted Mueller Hinton II broth (MHB) (Becton Dickinson 212322) adjusted to pH 7.4 or Tryptone Soy Broth (TSB) (Oxoid CM0129) for the ATP leakage assays. Brain Heart Infusion (BHI) (CM1135) with agar (VWR 20768.292) 1.5% as gelling agent was used throughout for colony plating.
The Minimum Inhibitory Concentration (MIC) of the chimeras was determined against the spectrum of bacteria using the microdilution method according to guidelines of the Clinical and Laboratory Standards Institute (CLSI). Chimera 1:2 serial dilutions were prepared from 1,024 μg/mL stock solutions to give a final range of 512-0.5 μg/mL in the wells. This corresponds to a final range of 144 to 0.14 μM for the heaviest chimera (i.e. chimera 4c) and of 282 to 0.27 μM for the lightest chimera (i.e. chimera 4a). Colonies grown overnight (i.e. approximately 18 hours) on BHI agar were suspended in 0.9% saline to give a turbidity of 0.13 at OD546 (approximately 1 × 10^8 CFU/mL), and then diluted in MHB pH 7.4 to a final concentration of 5 × 10^5 CFU/mL in each well. Following CLSI guidelines the media for testing of Listeria monocytogenes strains were supplemented with 2.5% lysed horse blood. Polypropylene plates (Nunc 442587) were used to minimize peptide binding and incubation time was 18-20 hours at 37°C. MIC was determined in a minimum of two technical replicates as the lowest concentration of the peptide analogue where no visible growth was found. The Minimum Bactericidal Concentration (MBC) was determined by plating 10 μL of the suspension from the first three wells without growth on BHI agar and incubating these for 24 hours at 37°C. MBC was the lowest concentration at which a 99.9% reduction in CFU/mL was observed. Activity is expressed in μmol/L to enable a direct comparison of analogues with different length (= size).

S. marcescens = assay: ATP leakage bioluminescence assay; type: cell-based, Serratia marcescens; conditions: 1000 μg/mL chimera
Description: (§1) Pore formation as caused by peptide addition was determined by measuring ATP leakage from the bacterial cell using a bioluminescence assay. The assay was used to estimate differences between sub-typical chimeras 1, 2 and 3 on S. aureus and S. marcescens and to evaluate the effect of chain length of mixed type chimeras 4a, 4b and 4c on S. aureus. In brief, bacteria were grown in TSB at 37°C for 24 hours and then re-inoculated in TSB at 37°C for 6-8 hours until an absorbance at 546 nm of 2.5 for S. aureus and 2.0 for S. marcescens and then harvested (10 min at 2,000 × g). The bacteria were grown to a high absorbance since a high concentration of bacteria was necessary in order to get a measurable response in the ATP leakage assay. Cells were washed once in 50 mM potassium phosphate buffer (pH 7.0) and once in 50 mM HEPES buffer (pH 7.0), before the pellet was resuspended in HEPES buffer to an OD546 ~ 10, and then stored on ice. Before chimera addition bacteria were pre-incubated with 0.2% (w/v) glucose to energize the cells. In general a chimera dose of 1000 μg/mL (corresponding to 280-552 μM for all chimeras) was used for all assays; however, for determining dose response curves additional doses of 100 (28-55 μM), 250 (71-137 μM) and 500 (140-276 μM) μg/mL were tested, and only the immediate release was noted. Total ATP and extracellular ATP were determined with a luminometer […]. Intracellular volumes of S. aureus and S. marcescens (0.85 μm^3 and 1.7 μm^3, respectively) were subtracted from the total volume before calculating the extracellular ATP concentration; the intracellular ATP concentration could then be calculated from this and the total ATP. ATP leakage kinetics was determined on a bacterial suspension prepared as above. Samples were taken at time 0, 5, 10, 20, 30 and 60 minutes and viable counts determined. Both the ATP leakage assay and killing kinetics performed under the same assay conditions were performed in two independent experiments.

S. aureus = assay: ATP leakage bioluminescence assay; type: cell-based, Staphylococcus aureus; conditions: 1000 μg/mL chimera
Description: as §1

## CC(=O)N[C@@H](CCCCN)C(=O)N(CCC(=O)N[C@@H](CCCCN)C(=O)N(CCC(=O)N[C@@H](CCCCN)C(=O)N(CCC(=O)N[C@@H](CCCCN)C(=O)N(CCC(=O)N[C@@H](CCCCN)C(=O)N(CCC(=O)N[C@@H](CCCCN)C(=O)N(CCC(=O)N[C@@H](CCCCN)C(=O)N(CCC(=O)N[C@@H](CCCCN)C(=O)N(CCC(N)=O)[C@@H](C)c1ccccc1)[C@@H](C)c1ccccc1)[C@@H](C)c1ccccc1)[C@@H](C)c1ccccc1)[C@@H](C)c1ccccc1)[C@@H](C)c1ccccc1)[C@@H](C)c1ccccc1)[C@@H](C)c1ccccc1 [Chimera 3]
[1]
  ability to induce calcein leakage: positive response
[2]
  lower activity compared to chimera 2 against E.coli: 2-7 fold
  lower activity compared to chimera 2 against S. aureus and K. pneumoniae: 6-13 fold
S. marcescens
  ATP leakage (in words): caused leakage of ATP
S. aureus
  ATP leakage (in words): caused leakage of ATP
